Our source for the AC50 values is PubChem BioAssay AID463206 (Broad Institute, 2010).

The structures appear in SMILES notation. The source made the active and inactive calls.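 The calls were made as follows: active = caspase luminescence falls with dose and the half-maximal concentration AC50 from the fitted curve is at or below a set limit; inconclusive = flat fit at 30 to 70% signal loss, or invalid fit; inactive = AC50 above the limit, or signal rises instead.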

The test system of the experiment is INS-1E cytokine-induced caspase-3/7, Caspase-Glo luminescence, 48 h. Briefly: suppression of cytokine-driven beta-cell apoptosis – INS-1E rat cells, luminescence, orthogonal assay for beta-cell apoptosis protection project, dose response (AID 463206).

Turning to `Fc1ccc(C[n+]2c(-c3ccccc3)cc(-c3ccccc3)cc2-c2ccccc2)cc1`, the AC50 was > 26 µM (inactive).
As for `O=S(=O)(NCC1CCCO1)c1ccc(-c2ccc(S(=O)(=O)NCC3CCCO3)cc2)cc1` (stereo not given), the AC50 was > 26 µM (inactive).
Under `C/C(=N\Nc1ccc2nncn2n1)c1ccccn1` stands > 26 µM (inactive); under `COC(=O)C[C@]1(C(=O)OC)CN(C#N)N(c2ccc(Cl)cc2)C12c1ccccc1-c1ccccc12`, > 26 µM (inactive).
Turning to `CCCCNc1c(-c2ccc(OC)c(SC(C)CC)c2)nc2ccc(C)cn12` (stereo not given), the AC50 was > 26 µM (inactive).
Under `COc1ccc(Cn2c(-c3ccc(C)cc3)c[n+]3ccccc23)cc1` stands > 26 µM (inactive); under `Cc1ccc(NC(=O)COc2ccc(N(C)C(=O)C(C)(C)C)cc2)cc1S(=O)(=O)N1CCCCC1`, > 26 µM (inactive).
Under `Cc1ccc2nc(N(CCCN(C)C)C(=O)c3ccc(S(=O)(=O)N4CCc5ccccc5C4)cc3)sc2c1` stands > 26 µM (inactive); under `COc1ccc(C2/C=C\CN(C(=O)Nc3ccc(C(F)(F)F)cc3)CC(=O)N2Cc2ccc(F)cc2)cc1` (stereo not given), > 26 µM (inactive).
With `COc1ccccc1NC(=O)c1cc2cc(Br)ccc2cc1O` the figure was > 26 µM (inactive).
`COc1ccc(/C=N/NC(=O)c2nc(-c3ccccc3)n(-c3ccccc3)n2)c(O)c1`: the AC50 was > 26 µM (inactive).
Under `Cc1ccc(-c2nc(C(Cl)Cl)c3ccccc3n2)cc1` stands 2.66 µM; under `On1onc2c3cc(-c4ccccc4)nc3ccc21`, > 26 µM (inactive).
Under `O=C(Nc1ccc(N2CCN(Cc3ccccc3Cl)CC2)cc1)c1cccnc1` stands > 26 µM (inactive); under `O=C(N/N=C\c1cc(Cl)ccc1O)c1ccc(S(=O)(=O)N2CCCCC2)cc1`, > 26 µM (inactive).
Under `C/C(=N\NC(=O)c1ccoc1C)c1ccccc1O` stands > 26 µM (inactive); under `CN1/C(=C\C(=O)COC(=O)c2ccc(O)c(O)c2)C(C)(C)c2ccccc21`, > 26 µM (inactive).
Take `CCOC(=O)/C(=C\c1ccccc1)C(=O)c1cc(C(C)=O)c(Nc2ccccc2)s1`: the AC50 is > 26 µM (inactive).
Take `C/C(=N\NC(=O)c1cc(C)nc2ccccc12)c1ccccn1`: the AC50 is > 26 µM (inactive).
`CC(=O)c1ccc(N2CCN(S(=O)(=O)c3ccc4c(c3)CC(C)N4C(C)=O)CC2)cc1` (stereo not given): the AC50 was > 26 µM (inactive).
As to `COc1ccc(CNC[C@@H](CCCCN(C)Cc2ccc(OC)cc2)N2C[C@H](c3ccccc3)N(CCc3ccc(Cl)c(Cl)c3)C(=O)C2=O)cc1`, the AC50 was > 26 µM (inactive).
Under `CC1CCC(C(C)C)C(OC(=O)Cn2c(-c3ccccc3)[n+](C)c3ccccc32)C1` (stereo not given) stands > 26 µM (inactive).
With `Cc1cc(N2CCC(C)CC2)nc(NCc2ccccc2)n1` the figure was 19.6 µM.
`CCCCNC1=CC(=O)C(=O)c2ccccc21`: the AC50 is > 26 µM (inactive).
Under `O=C(NCc1cccnc1)c1ccc(-c2cc3ccccc3oc2=O)cc1` stands > 26 µM (inactive); under `C[C@H]1CCC/C=C/[C@@H]2C[C@H](O)C[C@H]2[C@H](O)/C=C/C(=O)O1`, > 26 µM (inactive).
Consider `Cc1nnc2ccc(Oc3ccc(-c4ccccc4)cc3)nn12`, for which the AC50 is > 26 µM (inactive).
Under `O=C(Nc1ccc(Br)c(C(F)(F)F)c1)c1ccc(C(F)(F)F)cc1` stands > 26 µM (inactive); under `NC1=C(Br)C(=O)c2ccccc2C1=O`, > 26 µM (inactive).
Take `O=C(NCCCn1ccnc1)c1ccc(N2CCCCCC2)c([N+](=O)[O-])c1`: the AC50 is > 26 µM (inactive).
With `NC(=S)N/N=C/c1ccccc1O` the figure was > 26 µM (inactive).
With `Cc1ccc([N+](=O)[O-])c(OCCN2CCCCCC2)c1` the figure was > 26 µM (inactive); with `CC[C@@H]1C/C=C\Cc2ccccc2[C@H](C(=O)C[C@@H](O)CC(C)=O)OC1=O`, > 26 µM (inactive); with `Cc1[nH]n(-c2ccccc2)c(=O)c1/C=N/NC(=O)COc1ccccc1[N+](=O)[O-]`, > 26 µM (inactive).
As for `COc1ccccc1N1CC(C)(C)C(=O)N(C(=O)c2ccc(Cl)cc2)C1=S`, the AC50 was > 12 µM (inactive).
Under `Cc1ccc(C#CC[N+]2(CC#Cc3ccc(C)cc3)CCCCC2)cc1` stands > 26 µM (inactive).
Under `CC(=O)c1ccc(NC(=S)NCc2cccnc2)cc1` stands > 26 µM (inactive).
Under `CCOC(=O)/C(=C\c1ccc([N+](=O)[O-])cc1)C(=O)c1cc(C(C)=O)c(Nc2ccccc2)s1` stands > 26 µM (inactive); under `CC(C)NC(=S)NC(c1ccccc1)(c1ccccc1)c1ccccc1`, > 26 µM (inactive).
`O=C(NCCc1cn2ccccc2n1)c1cc(COc2ccc3ncccc3c2)on1`: the AC50 was > 26 µM (inactive).
With `O=C(N/N=C(\c1ccccc1)c1cccnc1)c1cccc(F)c1` the figure was > 26 µM (inactive); with `Cc1cc(C)nc(SCc2ccc(C(=O)N/N=C/c3cccc(O)c3O)cc2)n1`, > 26 µM (inactive).
For the compound `Cc1ccc(S(=O)(=O)Nc2ccc(C(OC(=O)c3ccccc3[N+](=O)[O-])(C(F)(F)F)C(F)(F)F)cc2)cc1`, the AC50 is > 26 µM (inactive).
Under `Cn1cc(C(=O)N/N=C/c2c(O)ccc3ccccc23)ccc1=O` stands > 26 µM (inactive); under `COC(=O)c1sc(-c2ccc(C(C)(C)C)cc2)cc1NC(=O)/C=C/C(=O)O`, > 26 µM (inactive); under `O=C(N/N=C/c1cc(Br)cc(Br)c1O)c1ccncc1`, > 26 µM (inactive).
Under `Clc1ccc(-c2[nH]ncc2N=Nc2ccccc2)cc1` stands > 26 µM (inactive); under `Cc1ccc(NC2=C(N3CCCCC3)C(=O)c3ccccc3C2=O)cc1`, > 26 µM (inactive); under `COc1ccccc1/C=N/OCc1cc(C(C)=O)ccc1OC`, > 26 µM (inactive).
Under `COc1cccc(/C=N/NC(=O)c2[nH]nc3c2CCc2ccccc2-3)c1O` stands > 26 µM (inactive); under `CN(C)CCCn1cnc2c(c1=N)C(c1ccccc1)c1ccc3ccccc3c1O2` (stereo not given), 9.99 µM.
In the case of `C=C1C(=O)O[C@@H]2C[C@@H](C)[C@@H]3C4OC4C(=O)[C@@]3(C)[C@@H](O)[C@H]12` (stereo not given in full), the AC50 was > 26 µM (inactive).
Under `CCN1c2ccccc2NC2N=C(OC)C(c3ccccc3)C21` (stereo not given) stands > 26 µM (inactive).
Under `COc1cnc(-c2ccccn2)nc1N(C)c1ccccc1` stands > 26 µM (inactive); under `CCN(CC)c1ccc(/C=N/NC(=O)c2cccc(S(=O)(=O)N3CCOCC3)c2)c(O)c1`, > 26 µM (inactive); under `Cc1ccc2[nH]c(C(=O)N/N=C/c3ccccc3O)c(C)c2c1`, > 26 µM (inactive).
Under `Cc1cc(N/N=C/c2ccc(O)cc2O)nc(-n2nc(C)cc2C)n1` stands > 26 µM (inactive); under `Cc1cc(C)n(-c2nc(NCCN(C)C)c3c4c(sc3n2)CCCC4)n1`, 13.1 µM.
Turning to `Clc1ccc(CSc2ccc(-c3ccccn3)nn2)cc1`, the AC50 is > 26 µM (inactive).
With `Cc1oc(/N=C/c2ccccc2)c(C#N)c1C` the figure was > 26 µM (inactive).
With `N=c1c2c(n(Cc3cccc(Cl)c3)c3c1CCC3)CCCC2` the figure was > 26 µM (inactive); with `COc1cccc(Cn2c(NCc3ccco3)nc3c2c(=O)n(C)c(=O)n3C)c1`, > 26 µM (inactive).
As to `CC(=O)c1ccc(NC(=S)NC(C)c2ccc(Cl)cc2Cl)cc1` (stereo not given), the AC50 is > 26 µM (inactive).
With `N#C/C(=C\c1ccc([N+](=O)[O-])o1)c1nc2ccccc2[nH]1` the figure was > 26 µM (inactive); with `O=C(NCc1cccnc1)/C(=C\c1ccc(-c2cccc(Cl)c2)o1)S(=O)(=O)c1ccccc1`, > 26 µM (inactive).
Under `Cc1ccc(C)c(-c2csc(NC(=O)C3=COCCO3)n2)c1` stands > 26 µM (inactive); under `Cc1sc2ncnc(N3CCN(S(=O)(=O)c4ccc(C(C)(C)C)cc4)CC3)c2c1C`, > 26 µM (inactive); under `CCOC(=O)c1c(C)oc2c1C(=O)c1ccccc1C2=O`, > 26 µM (inactive).
Under `NNc1ncnc2scc(-c3ccc(Cl)cc3)c12` stands > 26 µM (inactive); under `COc1ccc(O)c(/C=N/NC(=O)c2cccc(N3CCCC3=O)c2)c1`, > 26 µM (inactive).
In the case of `CN(C)c1ccc(-c2cc(O)c3ncccc3c2)cc1`, the AC50 was > 26 µM (inactive).
With `CCOC(=O)c1ccc(NC(=O)Cn2cnc3cc(C)c(C)cc32)cc1` the figure was > 26 µM (inactive).
As for `O=C(Nc1ccc(Nc2ccncc2)cc1)c1ccc(Nc2ccnc3ccc([N+](=O)[O-])cc23)cc1[N+](=O)[O-]`, the AC50 was > 26 µM (inactive).
Under `CCCCCCCCCCOC(=O)C[N+](C)(C)C/C=C(/C)Cl` stands > 26 µM (inactive).
Under `CC(C)C(=O)NC(c1ccccc1)c1cc([N+](=O)[O-])c2cccnc2c1O` (stereo not given) stands > 26 µM (inactive); under `FC(F)(F)c1ccccc1NC(=S)N1CCc2ccccc2C1`, > 26 µM (inactive).
Under `Cc1ccccc1C(=O)N1CCN(c2ccc(NC(=O)c3cccnc3)cc2)CC1` stands > 26 µM (inactive); under `OC(c1cc(-c2ccc(Cl)cc2)nc2ccccc12)C1CCCCN1` (stereo not given), > 26 µM (inactive); under `COc1cc(NC(=O)c2ccc([N+](=O)[O-])o2)ccc1NC(=O)c1cccs1`, > 26 µM (inactive).
Turning to `Cc1cccc(Cn2nnc3c2C(=O)c2ccccc2C3=O)c1`, the AC50 was > 26 µM (inactive).
With `CCN1CCN(c2c(Cl)cccc2NC(=O)c2ccc([N+](=O)[O-])o2)CC1` the figure was > 26 µM (inactive); with `Cn1c(-c2ccccc2)cc2c3no[n+]([O-])c3ccc21`, > 26 µM (inactive); with `Cc1ccc(/C=N/NC(=O)c2c(-c3ccccc3)noc2C)c(O)c1`, > 26 µM (inactive).
`Cc1ccc(O)c(/C=N/NC(=O)c2[nH]ncc2Br)c1`: the AC50 was > 26 µM (inactive).
Under `O=C1C=C(Nc2ccccc2)C(=O)c2ccccc21` stands > 26 µM (inactive).
